Laboratory results taken from publication PMC3392449 (Journal of Immunology (Baltimore, Md. : 1950), 2012).

Legend:
Format in all cases: cell-based, human
[1] = tested on: extract-stimulated PBMC cultures from allergic donors (IFN-γ production); experiment: IFN-γ ELISPOT of in vitro expanded PBMC; settings: donor U00023 (Figure 3), result in words
[2] = tested on: extract-stimulated PBMC cultures from allergic donors (IL-5 production); experiment: IL-5 ELISPOT of in vitro expanded PBMC; settings: donor U00023 (Figure 3), result in words
[3] = tested on: extract-stimulated PBMC cultures from allergic donors; experiment: IL-5 plus IFN-γ ELISPOT of Bla g extract-expanded PBMC; settings: share of the region in the total Bla g peptide response (total SFC)

Row | Sequence | IFN-γ response [1] | IL-5 response [2] | % Total response [3] [%]
1 | FAVATITHAAELQRV [Region 5] | produced IFN-γ | no IL-5 | 3.5
2 | GNQNFLTVFDSTSCN [Region 7] | produced IFN-γ | no IL-5 | 0.2
3 | ISDFRAAIANYHYDA [Region 13] | – | – | 8.6
4 | PEQIQLLKKAFDAFD [Region 23] | – | associated only with IL-5 production | 5.1
